For the assay, the system named is BDF1 mice, s.c. Lewis lung carcinoma, T/C %. The assay can be described thus: NCI In Vivo Anticancer Drug Screen. Data for tumor model Lewis Lung Carcinoma (subcutaneous) in B6D2F1 (BDF1) mice. In short, it runs like this:
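Readout: survival or tumor size, expressed as treated (T) over vehicle control (C). Transplantable tumor implanted in mice; compound given to the treated group.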

Where [1] appears, read: endpoint: mean tumor weight, dose: 50.0 mg/kg/injection, schedule: Q01DX011 (ip), vehicle: carboxymethylcellulose (CMC), higher = larger tumour.
The mark [2] stands for this setting: endpoint: mean tumor weight, dose: 100.0 mg/kg/injection, schedule: Q01DX011 (ip), vehicle: carboxymethylcellulose (CMC), higher = larger tumour.
Where [3] appears, read: endpoint: mean tumor weight, dose: 200.0 mg/kg/injection, schedule: Q01DX011 (ip), vehicle: carboxymethylcellulose (CMC), higher = larger tumour.
Where [4] appears, read: endpoint: mean tumor weight, dose: 400.0 mg/kg/injection, schedule: Q01DX011 (ip), vehicle: carboxymethylcellulose (CMC), higher = larger tumour.
The mark [5] stands for this setting: endpoint: mean tumor weight, dose: 50.0 mg/kg/injection, schedule: Q01DX011 (ip), vehicle: saline, higher = larger tumour.
Setting [6] is: endpoint: mean tumor weight, dose: 200.0 mg/kg/injection, schedule: Q01DX011 (ip), vehicle: saline, higher = larger tumour.

Structures are written as SMILES. “And” between values parts separate entries of the source, which are not always exact repeats. Equal values may be shown once. Records with an inconclusive call do not appear.

Consider `COc1cccc(/C=N\NC(=O)C(C)SC(C)C(=O)N/N=C/c2cccc(OC)c2)c1` (configuration not stated), for which the T/C runs as follows: (endpoint: mean tumor weight, dose: 25.0 mg/kg/injection, schedule: Q01DX011 (ip), vehicle: carboxymethylcellulose (CMC), higher = larger tumour) 82 % of control; under setting [1], 113 % of control; under setting [2], 67 % of control; under setting [3], 101 % of control; under setting [4], 99 % of control; (endpoint: mean tumor weight, dose: 600.0 mg/kg/injection, schedule: Q01DX011 (ip), vehicle: carboxymethylcellulose (CMC), higher = larger tumour) 85 % of control.
For the compound `CC(O)CC1CCCN1C` (configuration not stated), the T/C is 208 % of control under setting [5]; 103 % of control (endpoint: mean tumor weight, dose: 100.0 mg/kg/injection, schedule: Q01DX011 (ip), vehicle: saline, higher = larger tumour); 179 % of control under setting [6].
With `COc1ccc(-c2cc(=O)c3c(OC)c(OC)c(OC)c(OC)c3o2)cc1OC`, the T/C reads like this: under setting [5], 55 % of control and 77 % of control; under setting [6], 62 % of control and 78 % of control.
In the case of `C[C@H]1C[C@H]2[C@@H]3CC[C@](O)(C(=O)CO)[C@@]3(C)C[C@H](O)[C@]2(F)[C@@]2(C)C=CC(=O)C=C12`, the T/C (endpoint: mean tumor weight, dose: 15.0 mg/kg/injection, schedule: Q01DX011 (sc), vehicle: steriod suspending solution, higher = larger tumour) is 44 % of control; the T/C (endpoint: mean tumor weight, dose: 30.0 mg/kg/injection, schedule: Q01DX011 (sc), vehicle: steriod suspending solution, higher = larger tumour) is 43 % of control; the T/C (endpoint: mean tumor weight, dose: 90.0 mg/kg/injection, schedule: Q01DX011 (sc), vehicle: steriod suspending solution, higher = larger tumour) is 12 % of control.
For `COc1ccc(CN2CCCN(Cc3ccc(OC)cc3)C2c2ccc(Cl)cc2Cl)cc1`, the T/C reads like this: (endpoint: mean tumor weight, dose: 74.0 mg/kg/injection, schedule: Q01DX011 (ip), vehicle: other, higher = larger tumour) 119 % of control; (endpoint: mean tumor weight, dose: 166.0 mg/kg/injection, schedule: Q01DX011 (ip), vehicle: other, higher = larger tumour) 111 % of control.
Take `CS(=O)(=O)c1ccccc1`: the T/C is, setting by setting: (endpoint: mean tumor weight, dose: 58.0 mg/kg/injection, schedule: Q01DX011 (ip), vehicle: other, higher = larger tumour) 99 % of control; (endpoint: mean tumor weight, dose: 88.0 mg/kg/injection, schedule: Q01DX011 (ip), vehicle: other, higher = larger tumour) 103 % of control; (endpoint: mean tumor weight, dose: 133.0 mg/kg/injection, schedule: Q01DX011 (ip), vehicle: other, higher = larger tumour) 83 % of control; (endpoint: mean tumor weight, dose: 200.0 mg/kg/injection, schedule: Q01DX011 (ip), vehicle: other, higher = larger tumour) 79 % of control; (endpoint: mean tumor weight, dose: 250.0 mg/kg/injection, schedule: Q01DX011 (ip), vehicle: other, higher = larger tumour) 77 % of control; (endpoint: mean tumor weight, dose: 500.0 mg/kg/injection, schedule: Q01DX011 (ip), vehicle: other, higher = larger tumour) 80 % of control. The T/C by setting is: (endpoint: mean tumor weight, dose: 750.0 mg/kg/injection, schedule: Q01DX011 (ip), vehicle: other, higher = larger tumour) 76 % of control; (endpoint: mean tumor weight, dose: 1000.0 mg/kg/injection, schedule: Q01DX011 (ip), vehicle: other, higher = larger tumour) 93 % of control.
As to `CC[C@]1(O)C[C@H]2CN(CCc3c([nH]c4ccccc34)[C@@](C(=O)OC)(c3cc4c(cc3OC)N(C=O)[C@H]3[C@@](O)(C(=O)OC)[C@H](OC(C)=O)[C@]5(CC)C=CCN6CC[C@]43[C@@H]65)C2)C1`, the T/C reads like this: (endpoint: mean survival time, dose: 0.5 mg/kg/injection, schedule: Q08DX002 (ip), vehicle: saline, higher = longer survival) 101 % of control; (endpoint: mean survival time, dose: 1.0 mg/kg/injection, schedule: Q08DX002 (ip), vehicle: saline, higher = longer survival) 104 % of control; (endpoint: mean survival time, dose: 1.5 mg/kg/injection, schedule: Q08DX002 (ip), vehicle: saline, higher = longer survival) 106 % of control; (endpoint: mean tumor weight, dose: 0.05 mg/kg/injection, schedule: Q01DX011 (ip), vehicle: saline, higher = larger tumour) 81 % of control; (endpoint: mean tumor weight, dose: 0.1 mg/kg/injection, schedule: Q01DX011 (ip), vehicle: saline, higher = larger tumour) 83 % of control; (endpoint: mean tumor weight, dose: 0.15 mg/kg/injection, schedule: Q01DX011 (ip), vehicle: saline, higher = larger tumour) 87 % of control and 101 % of control. The T/C (endpoint: mean tumor weight, dose: 0.22 mg/kg/injection, schedule: Q01DX011 (ip), vehicle: saline, higher = larger tumour) is 88 % of control; the T/C (endpoint: mean tumor weight, dose: 0.5 mg/kg/injection, schedule: Q01DX011 (ip), vehicle: saline, higher = larger tumour) was 59 % of control; the T/C (endpoint: mean tumor weight, dose: 62.5 micrograms/kg/injection, schedule: Q01DX011 (ip), vehicle: saline, higher = larger tumour) is 59 % of control; the T/C (endpoint: mean tumor weight, dose: 125.0 micrograms/kg/injection, schedule: Q01DX011 (ip), vehicle: saline, higher = larger tumour) was 80 % of control; the T/C (endpoint: mean tumor weight, dose: 250.0 micrograms/kg/injection, schedule: Q01DX011 (ip), vehicle: saline, higher = larger tumour) was 59 % of control; the T/C (endpoint: median survival time, dose: 0.12 mg/kg/injection, schedule: Q01DX009 (ip), vehicle: saline, higher = longer survival) was 116 % of control. The T/C reads like this: (endpoint: median survival time, dose: 0.12 mg/kg/injection, schedule: Q04DX003 (ip), vehicle: saline, higher = longer survival) 104 % of control; (endpoint: median survival time, dose: 0.13 mg/kg/injection, schedule: Q01DX009 (ip), vehicle: saline, higher = longer survival) 100 % of control; (endpoint: median survival time, dose: 0.25 mg/kg/injection, schedule: Q01DX009 (ip), vehicle: saline, higher = longer survival) 108 % of control; (endpoint: median survival time, dose: 0.25 mg/kg/injection, schedule: Q04DX003 (ip), vehicle: saline, higher = longer survival) 108 % of control; (endpoint: median survival time, dose: 0.5 mg/kg/injection, schedule: Q01DX009 (ip), vehicle: saline, higher = longer survival) 108 % of control; (endpoint: median survival time, dose: 0.5 mg/kg/injection, schedule: Q04DX003 (ip), vehicle: saline, higher = longer survival) 88 % of control. The T/C (endpoint: median survival time, dose: 0.5 mg/kg/injection, schedule: Q08DX002 (ip), vehicle: saline, higher = longer survival) was 104 % of control; the T/C (endpoint: median survival time, dose: 1.0 mg/kg/injection, schedule: Q04DX003 (ip), vehicle: saline, higher = longer survival) was 93 % of control; the T/C (endpoint: median survival time, dose: 1.0 mg/kg/injection, schedule: Q08DX002 (ip), vehicle: saline, higher = longer survival) is 104 % of control; the T/C (endpoint: median survival time, dose: 1.5 mg/kg/injection, schedule: Q08DX002 (ip), vehicle: saline, higher = longer survival) was 108 % of control; the T/C (endpoint: median survival time, dose: 2.0 mg/kg/injection, schedule: Q04DX003 (ip), vehicle: saline, higher = longer survival) is 53 % of control; the T/C (endpoint: median survival time, dose: 125.0 micrograms/kg/injection, schedule: Q01DX009 (ip), vehicle: saline, higher = longer survival) was 88 % of control and 118 % of control. The T/C by setting is: (endpoint: median survival time, dose: 250.0 micrograms/kg/injection, schedule: Q01DX009 (ip), vehicle: saline, higher = longer survival) 93 % of control; (endpoint: median survival time, dose: 500.0 micrograms/kg/injection, schedule: Q01DX009 (ip), vehicle: saline, higher = longer survival) 97 % of control; (endpoint: median tumor weight (est.), dose: 0.12 mg/kg/injection, schedule: Q01DX011 (ip), vehicle: saline, higher = larger tumour) 102 % of control; (endpoint: median tumor weight (est.), dose: 0.18 mg/kg/injection, schedule: Q01DX011 (ip), vehicle: saline, higher = larger tumour) 46 % of control; (endpoint: median tumor weight (est.), dose: 125.0 micrograms/kg/injection, schedule: Q01DX009 (ip), vehicle: saline, higher = larger tumour) 92 % of control; (endpoint: median tumor weight (est.), dose: 250.0 micrograms/kg/injection, schedule: Q01DX009 (ip), vehicle: saline, higher = larger tumour) 93 % of control. The T/C (endpoint: median tumor weight (est.), dose: 500.0 micrograms/kg/injection, schedule: Q01DX009 (ip), vehicle: saline, higher = larger tumour) was 43 % of control.
For the compound `Cc1ccc2c(Nc3ccc(NS(C)(=O)=O)cc3)c3ccccc3nc2c1C`, the T/C reads like this: (endpoint: median survival time, dose: 10.0 mg/kg/injection, schedule: Q01DX009 (ip), vehicle: other, higher = longer survival) 98 % of control; (endpoint: median survival time, dose: 40.0 mg/kg/injection, schedule: Q01DX009 (ip), vehicle: other, higher = longer survival) 124 % of control.
For `O=c1[nH]c(=O)n(C2CC(O)C(CO)O2)cc1Br` (configuration not stated), the T/C under setting [1] was 67 % of control, the T/C under setting [2] is 88 % of control, the T/C under setting [3] is 41 % of control and the T/C under setting [4] was 53 % of control.
On to `CC(C)c1ccc(O)c(=O)cc1`, for which the T/C is 52 % of control (endpoint: mean tumor weight, dose: 37.5 mg/kg/injection, schedule: Q01DX011 (ip), vehicle: carboxymethylcellulose (CMC), higher = larger tumour) and 62 % of control (endpoint: mean tumor weight, dose: 75.0 mg/kg/injection, schedule: Q01DX011 (ip), vehicle: carboxymethylcellulose (CMC), higher = larger tumour).
On to `CN(C)c1ccc(C(N)=O)cn1`, for which the T/C runs as follows: (endpoint: mean tumor weight, dose: 1.5 mg/kg/injection, schedule: Q01DX011 (ip), vehicle: saline, higher = larger tumour) 100 % of control; (endpoint: mean tumor weight, dose: 3.0 mg/kg/injection, schedule: Q01DX011 (ip), vehicle: saline, higher = larger tumour) 63 % of control; (endpoint: mean tumor weight, dose: 6.0 mg/kg/injection, schedule: Q01DX011 (ip), vehicle: saline, higher = larger tumour) 36 % of control.
Regarding `O=C(NC(Cc1ccccc1)C(=O)CCl)OCc1ccccc1` (configuration not stated), the T/C was 107 % of control (endpoint: median survival time, dose: 3.12 mg/kg/injection, schedule: Q01DX009 (ip), vehicle: saline with Tween-80, higher = longer survival); 87 % of control (endpoint: median survival time, dose: 6.25 mg/kg/injection, schedule: Q01DX009 (ip), vehicle: saline with Tween-80, higher = longer survival); 94 % of control (endpoint: median survival time, dose: 12.5 mg/kg/injection, schedule: Q01DX009 (ip), vehicle: saline with Tween-80, higher = longer survival).
In the case of `O=S(=O)(O)C(Nc1ccccc1)c1ccccc1` (configuration not stated), the T/C (endpoint: mean tumor weight, dose: 100.0 mg/kg/injection, schedule: Q01DX011 (ip), vehicle: water, higher = larger tumour) was 51 % of control; the T/C (endpoint: mean tumor weight, dose: 200.0 mg/kg/injection, schedule: Q01DX011 (ip), vehicle: water, higher = larger tumour) was 71 % of control; the T/C (endpoint: mean tumor weight, dose: 400.0 mg/kg/injection, schedule: Q01DX011 (ip), vehicle: water, higher = larger tumour) is 27 % of control.

Values taken from PubChem BioAssay AID270 (DTP/NCI, 2004).
